{
  "source": "patent US20160095802A1",
  "about": "“COMBINATION OF PETROSELINIC ACID AND ZINC FOR ORAL ADMINISTRATION FOR HAIR AGING CONTROL” (NUTRICOS TECHNOLOGIES, priority 2013, published 2016)",
  "test_system": "Lipoxin A4 production in human mononuclear cells",
  "assay": "Lipoxin A4 production in stimulated human mononuclear blood cells in vitro (LC-MS of supernatants)",
  "format": "cell-based",
  "conditions": "coriander oil 0.25 mg/ml, zinc gluconate 0.005 mg/ml; 30 min pre-incubation, then 2 hours stimulation with phorbol myristate 0.05 μM + calcium ionophore 1 μM + DHA/EPA 1 μg/mL each; triplicates",
  "experimental": "Mononuclear blood cells are cultured under 5% CO2 and at 37° C. in a serum-free medium for macrophages (SFM Macrophage; Invitrogen 12065074) for 24 hours. After this step, the medium is replaced with the same fresh test medium also containing the active agents at the various doses for 30 minutes in the presence of the various products to be evaluated (coriander oil 0.25 mg/ml, zinc gluconate ([…]. The inflammatory response was then triggered in the presence of phorbol myristate (0.05 μM) and calcium ionophore (1 μM) and a lipid substrate mixture composed of docosahexaenoic acid (DHA—1 μg/mL) and eicosapentaenoic acid (EPA—1 μg/mL).\nThe supernatants were then collected after 2 hours of stimulation and frozen at −80° C. before preparation for analysis by mass spectrometry.\nExperimental triplicates (three wells) were prepared per experimental condition. Into each culture plate was placed a control corresponding to cells stimulated with the PMA/A23187 mixture and/or with addition of the equimolar mixture of fatty acids.\nThe thawed supernatants were concentrated by solid-phase extraction (SPE) and taken up in methanol before spectrometric analysis. The analytical method used consists in separating the various analytes by high-pressure liquid chromatography as a function of their retention time and in quantifying them by mass spectrometry. […]",
  "data": [
    {"substance": "Zinc gluconate", "values": [
      {"measurement": "Level of lipoxin A4 production (% modulation relative to the control)", "result": "−5", "unit": "%"}
    ]}
  ]
}
